# According to patent US20140065103A1 (VERTEX PHARMACEUTICALS INCORPORATED, priority 2010, published 2014):
# Columns and labels:
# [1] = [3H]Thymidine incorporation assay (cytotoxicity, CC50); conditions: human
# [2] = test system: HCV sub-genomic replicon of genotype 1a in replicon cell line W11.8; test: microbe, parasite or virus in culture; format: cell-based, Hepatitis C virus; conditions: Hepatitis C virus, W11.8, 96 h, read-out: HCV-Replicon-ELISA-1a IC50
Compound,CC50 at 72 h [1] [µM],IC50 [2] [µM]
"CC(C)(C)C#Cc1cc(N(C(=O)[C@H]2CC[C@H](C)CC2)C2CC=C(F)CC2)c(C(=O)O)s1 (relative stereo) [Compound 15, 5-(3,3-Dimethyl-but-1-ynyl)-3-[(4-fluoro-cyclohex-3-enyl)-(trans-4-methyl-cyclohexanecarbonyl)-amino]-thiophene-2-carboxylic acid]",10 to 100,< 0.1
"CC(CN1CCOCC1)N(c1cc(C#CC(C)(C)C)sc1C(=O)O)C(=O)[C@H]1CC[C@H](C)CC1 (relative stereo) [Compound 72, 5-(3,3-Dimethylbut-1-yn-1-yl)-3-(trans-4-methyl-N-(1-morpholinopropan-2-yl)cyclohexanecarboxamido)thiophene-2-carboxylic acid]",10 to 100,< 0.1
CC(C)(C)C#Cc1cc(N(Cc2cccnc2)C(=O)[C@H]2CC[C@H](C)CC2)c(C(=O)O)s1 [Compound 1],10 to 100,< 0.1
"CC(C)(C)C#Cc1cc(N(CC(=O)O)C(=O)[C@H]2CC[C@H](C)CC2)c(C(=O)O)s1 [Compound 2, 3-[Carboxymethyl-(trans-4-methyl-cyclohexanecarbonyl)-amino]-5-(3,3-dimethyl-but-1-ynyl)-thiophene-2-carboxylic acid]",> 100,0.1 to 1
"CN(C)C(=O)[C@H]1C[C@@H](N(c2cc(C#CC(C)(C)C)sc2C(=O)O)C(=O)[C@H]2CC[C@H](C)CC2)C1 [Compound 11, 5-(3,3-dimethylbut-1-yn-1-yl)-3-(trans-4-methyl-N-(cis-3-(dimethylcarbamoyl)cyclobutyl)cyclohexanecarboxamido)thiophene-2-carboxylic acid]",10 to 100,< 0.1
"C=CCO[C@H]1CC[C@H](N(c2cc(C#CC(C)(C)C)sc2C(=O)O)C(=O)[C@H]2CC[C@H](C)CC2)CC1 [Compound 12, 3-[(trans-4-Allyloxy-cyclohexyl)-(trans-4-methyl-cyclohexanecarbonyl)-amino]-5-(3,3-dimethyl-but-1-ynyl)-thiophene-2-carboxylic acid]",10 to 100,< 0.1
"CC(C)(C)C#Cc1cc(N(C(=O)[C@H]2CC[C@H](C)CC2)C2CCC(F)(F)CC2)c(C(=O)O)s1 [Compound 14, 3-[(4,4-Difluoro-cyclohexyl)-(trans-4-methyl-cyclohexanecarbonyl)-amino]-5-(3,3-dimethyl-but-1-ynyl)-thiophene-2-carboxylic acid]",10 to 100,< 0.1
"CC(C)(C)C#Cc1cc(N(C(=O)[C@H]2CC[C@H](C)CC2)C2CC2)c(C(=O)O)s1 [Compound 16, 3-[Cyclopropyl-(trans-4-methyl-cyclohexanecarbonyl)-amino]-5-(3,3-dimethyl-but-1-ynyl)-thiophene-2-carboxylic acid]",10 to 100,0.1 to 1
"CC(C)N(c1cc(C#CC2CCCCC2)sc1C(=O)O)C(=O)[C@H]1CC[C@H](C)CC1 [Compound 18, 5-Cyclohexylethynyl-3-[isopropyl-(trans-4-methyl-cyclohexanecarbonyl)-amino]-thiophene-2-carboxylic acid]",10 to 100,1 to 10
"CC(C)N(c1cc(C#CC(C)(C)O)sc1C(=O)O)C(=O)[C@H]1CC[C@H](C)CC1 [Compound 19, 5-(3-Hydroxy-3-methyl-but-1-ynyl)-3-[isopropyl-(trans-4-methyl-cyclohexanecarbonyl)-amino]-thiophene-2-carboxylic acid]",> 100,0.1 to 1
"CC(C)N(c1cc(C#CC2CC2)sc1C(=O)O)C(=O)[C@H]1CC[C@H](C)CC1 [Compound 20, 5-Cyclopropylethynyl-3-[isopropyl-(trans-4-methyl-cyclohexanecarbonyl)-amino]-thiophene-2-carboxylic acid]",10 to 100,0.1 to 1
"CC(C)N(c1cc(C#Cc2ccccc2)sc1C(=O)O)C(=O)[C@H]1CC[C@H](C)CC1 [Compound 21, 3-[Isopropyl-(trans-4-methyl-cyclohexanecarbonyl)-amino]-5-phenylethynyl-thiophene-2-carboxylic acid]",10 to 100,1 to 10
"COC(C)(C)C#Cc1cc(N(C(=O)[C@H]2CC[C@H](C)CC2)C(C)C)c(C(=O)O)s1 [Compound 22, 3-[Isopropyl-(trans-4-methyl-cyclohexanecarbonyl)-amino]-5-(3-methoxy-3-methyl-but-1-ynyl)-thiophene-2-carboxylic acid]",10 to 100,0.1 to 1
"CC(C)N(c1cc(C#CC(F)(F)F)sc1C(=O)O)C(=O)[C@H]1CC[C@H](C)CC1 [Compound 23, 3-[Isopropyl-(trans-4-methyl-cyclohexanecarbonyl)-amino]-5-trifluoroprop-1-ynyl-thiophene-2-carboxylic acid]",10 to 100,0.1 to 1
"Cc1nnc(CN(c2cc(C#CC(C)(C)C)sc2C(=O)O)C(=O)[C@H]2CC[C@H](C)CC2)o1 [Compound 24, 5-(3,3-Dimethyl-but-1-ynyl)-3-[(trans-4-methyl-cyclohexanecarbonyl)-(5-methyl-[1,3,4]oxadiazol-2-ylmethyl)-amino]-thiophene-2-carboxylic acid]",< 10,–
"CC(C)(C)C#Cc1cc(N(CCN2CCOCC2)C(=O)[C@H]2CC[C@H](C)CC2)c(C(=O)O)s1 [Compound 48, 5-(3,3-Dimethylbut-1-yn-1-yl)-3-(trans-4-methyl-N-(2-morpholinoethyl)cyclohexanecarboxamido)thiophene-2-carboxylic acid]",10 to 100,< 0.1
"CC(C)(C)C#Cc1cc(N(C(=O)[C@H]2CC[C@H](C)CC2)[C@H]2CCNC2)c(C(=O)O)s1 [Compound 57, 5-(3,3-Dimethylbut-1-yn-1-yl)-3-((trans)-4-methyl-N-((S)-pyrrolidin-3-yl)cyclohexanecarboxamido)thiophene-2-carboxylic acid]",> 100,< 0.1
"CC(C)(C)C#Cc1cc(N(C(=O)[C@H]2CC[C@H](C)CC2)[C@@H]2CCNC2)c(C(=O)O)s1 [Compound 58, 5-(3,3-Dimethylbut-1-yn-1-yl)-3-((trans)-4-methyl-N—((R)-pyrrolidin-3-yl)cyclohexanecarboxamido)thiophene-2-carboxylic acid]",> 100,< 0.1
"Cn1ccnc1CN(c1cc(C#CC(C)(C)C)sc1C(=O)O)C(=O)[C@H]1CC[C@H](C)CC1 [Compound 64, 5-(3,3-Dimethylbut-1-ynyl)-3-((trans)-4-methyl-N-((1-methyl-1H-imidazol-2-yl)methyl)cyclohexanecarboxamido)thiophene-2-carboxylic acid]",10 to 100,< 0.1
"Cn1cncc1CN(c1cc(C#CC(C)(C)C)sc1C(=O)O)C(=O)[C@H]1CC[C@H](C)CC1 [Compound 66, 5-(3,3-Dimethylbut-1-ynyl)-3-((trans)-4-methyl-N-((1-methyl-1H-imidazol-5-yl)methyl)cyclohexanecarboxamido)thiophene-2-carboxylic acid]",> 100,< 0.1
"Cn1cc(CN(c2cc(C#CC(C)(C)C)sc2C(=O)O)C(=O)[C@H]2CC[C@H](C)CC2)cn1 [Compound 67, 5-(3,3-Dimethylbut-1-ynyl)-3-((trans)-4-methyl-N-((1-methyl-1H-pyrazol-4-yl)methyl)cyclohexanecarboxamido)thiophene-2-carboxylic acid]",> 100,0.1 to 1
"Cn1ccc(CN(c2cc(C#CC(C)(C)C)sc2C(=O)O)C(=O)[C@H]2CC[C@H](C)CC2)n1 [Compound 71, 5-(3,3-Dimethylbut-1-ynyl)-3-((trans)-4-methyl-N-((1-methyl-1H-pyrazol-3-yl)methyl)cyclohexanecarboxamido)thiophene-2-carboxylic acid]",10 to 100,< 0.1
"CC(C)(C)C#Cc1cc(N(C(=O)c2ccc(Cl)cc2)[C@H]2CC[C@H](O)CC2)c(C(=O)O)s1 [Compound 81, 3-[(4-Chloro-benzoyl)-(trans-4-hydroxy-cyclohexyl)-amino]-5-(3,3-dimethyl-but-1-ynyl)-thiophene-2-carboxylic acid]",–,0.1 to 1
"Cc1ccc(C(=O)N(c2cc(C#CC(C)(C)C)sc2C(=O)O)[C@H]2CC[C@H](O)CC2)c(Cl)c1 [Compound 84, 3-[(2-Chloro-4-methyl-benzoyl)-(trans-4-hydroxy-cyclohexyl)-amino]-5-(3,3-dimethyl-but-1-ynyl)-thiophene-2-carboxylic acid]",–,< 0.1
"CC(C)(C)C#Cc1cc(N(C(=O)c2ccccc2Cl)[C@H]2CC[C@H](O)CC2)c(C(=O)O)s1 [Compound 87, 3-[(2-Chloro-benzoyl)-(trans-4-hydroxy-cyclohexyl)-amino]-5-(3,3-dimethyl-but-1-ynyl)-thiophene-2-carboxylic acid]",–,1 to 10
"Cc1ccccc1C(=O)N(c1cc(C#CC(C)(C)C)sc1C(=O)O)[C@H]1CC[C@H](O)CC1 [Compound 88, 5-(3,3-Dimethyl-but-1-ynyl)-3-[(trans-4-hydroxy-cyclohexyl)-(2-methyl-benzoyl)-amino]-thiophene-2-carboxylic acid]",–,0.1 to 1
"Cc1ccc(C(=O)N(c2cc(C#CC(C)(C)C)sc2C(=O)O)[C@H]2CC[C@H](O)CC2)c(F)c1F [Compound 89, 3-[(2,3-Difluoro-4-methyl-benzoyl)-(trans-4-hydroxy-cyclohexyl)-amino]-5-(3,3-dimethyl-but-1-ynyl)-thiophene-2-carboxylic acid]",–,< 0.1
"CC(C)(C)C#Cc1cc(N(C(=O)c2ccc(F)cc2)[C@H]2CC[C@H](O)CC2)c(C(=O)O)s1 [Compound 92, 5-(3,3-Dimethyl-but-1-ynyl)-3-[(4-fluoro-benzoyl)-(trans-4-hydroxy-cyclohexyl)-amino]-thiophene-2-carboxylic acid]",–,1 to 10
"CC(C)(C)C#Cc1cc(N(C(=O)c2ccc(Cl)c(F)c2)[C@H]2CC[C@H](O)CC2)c(C(=O)O)s1 [Compound 94, 3-[(4-Chloro-3-fluoro-benzoyl)-(trans-4-hydroxy-cyclohexyl)-amino]-5-(3,3-dimethyl-but-1-ynyl)-thiophene-2-carboxylic acid]",–,0.1 to 1
